The record followed here is the NIST ThermoML archive (doi:10.1016/j.jct.2017.12.012).

± gives the expanded uncertainty stated by the source.

The conditions of data set [1]: 101.33 kPa, Liquid, Vibrating tube method.
The nature of data set [2]: activity coefficient (dimensionless); of the first substance listed, at infinite dilution; xn = mol fraction of the nth substance listed. The settings on record: 101.33 kPa, Liquid, Chromatography, x1 = 0.

One may read the mass density as mass per unit of volume. Consider `CCCCCCCCn1cc[n+](C)c1C.O=S(=O)([N-]S(=O)(=O)C(F)(F)F)C(F)(F)F`, for which the mass density in data set [1] (313.15 K) came to 1296.1 ± 2.4 kg/m3; in data set [1] (323.15 K) it was 1287.4 ± 2.4 kg/m3; in data set [1] (333.15 K) it was 1278.6 ± 2.4 kg/m3; in data set [1] (343.15 K) it was 1269.1 ± 2.4 kg/m3; in data set [1] (353.15 K), 1258.2 ± 2.4 kg/m3.
Regarding `Cc1ccccc1` [toluene] + CCCCCCCCn1cc[n+](C)c1C.O=S(=O)([N-]S(=O)(=O)C(F)(F)F)C(F)(F)F, the activity coefficient in data set [2] (313.15 K) came to 1.03 ± 0.1; in data set [2] (323.15 K), 0.94 ± 0.1; in data set [2] (333.15 K) it was 0.87 ± 0.09; in data set [2] (343.15 K) it was 0.82 ± 0.08; in data set [2] (353.15 K), 0.78 ± 0.08.
For `CC(C)O` [propan-2-ol] + CCCCCCCCn1cc[n+](C)c1C.O=S(=O)([N-]S(=O)(=O)C(F)(F)F)C(F)(F)F, in that order: 2.13 ± 0.22, 1.82 ± 0.19, 1.56 ± 0.16, 1.34 ± 0.14 and 1.17 ± 0.12.
On to `CCCCCO` [pentan-1-ol] + CCCCCCCCn1cc[n+](C)c1C.O=S(=O)([N-]S(=O)(=O)C(F)(F)F)C(F)(F)F, for which the activity coefficient worked out at 2.61 ± 0.27 in data set [2] (313.15 K); 2.22 ± 0.23 in data set [2] (323.15 K); 1.92 ± 0.2 in data set [2] (333.15 K); 1.62 ± 0.17 in data set [2] (343.15 K); 1.41 ± 0.15 in data set [2] (353.15 K).
For `C1CCCCC1` [cyclohexane] + CCCCCCCCn1cc[n+](C)c1C.O=S(=O)([N-]S(=O)(=O)C(F)(F)F)C(F)(F)F the same measures were 4.76 ± 0.5, 4.16 ± 0.44, 3.75 ± 0.39, 3.37 ± 0.35 and 3.12 ± 0.33.
For `CCCO` [propan-1-ol] + CCCCCCCCn1cc[n+](C)c1C.O=S(=O)([N-]S(=O)(=O)C(F)(F)F)C(F)(F)F, in that order: 1.94 ± 0.2, 1.67 ± 0.17, 1.42 ± 0.15, 1.22 ± 0.13 and 1.05 ± 0.11.
